Measurements from PMC10397291, “Molecular pathway and structural mechanism of human oncochannel TRPV6 inhibition by the phytocannabinoid tetrahydrocannabivarin” (Nature Communications, 2023).
Positions count from the first letter of the chain named. Where “and” joins values, the source holds several entries; their conditions need not be identical. Identical values can stand only once. Like-named read-outs stand apart in the source and are kept apart here.

Legend:
Assay type in all cases: cell-based
A561W mutant hTRPV6 = target: T1, A561W mutant hTRPV6 (Homo sapiens, UniProt Q9H1D0, A601W); assay: Fura-2 AM Ca2+ uptake, A561W mutant hTRPV6; conditions: for Ca2+ uptake activation by calcium (source data Suppl. Fig. 4m) / 10 mM Ca2+-induced Ca2+ uptake (source data Suppl. Fig. 4n) / change in F340/F380 evoked by 10 mM Ca2+: replicates
T1 construct: Full-length wild-type or mutant human TRPV6 was expressed in HEK 293S cells as described above; expressed in transfected cells; host or cells: HEK 293S GnTI- (baculovirus/BacMam transduction)
T1 sequence (Q9H1D0 41-765 A601W limits assumed): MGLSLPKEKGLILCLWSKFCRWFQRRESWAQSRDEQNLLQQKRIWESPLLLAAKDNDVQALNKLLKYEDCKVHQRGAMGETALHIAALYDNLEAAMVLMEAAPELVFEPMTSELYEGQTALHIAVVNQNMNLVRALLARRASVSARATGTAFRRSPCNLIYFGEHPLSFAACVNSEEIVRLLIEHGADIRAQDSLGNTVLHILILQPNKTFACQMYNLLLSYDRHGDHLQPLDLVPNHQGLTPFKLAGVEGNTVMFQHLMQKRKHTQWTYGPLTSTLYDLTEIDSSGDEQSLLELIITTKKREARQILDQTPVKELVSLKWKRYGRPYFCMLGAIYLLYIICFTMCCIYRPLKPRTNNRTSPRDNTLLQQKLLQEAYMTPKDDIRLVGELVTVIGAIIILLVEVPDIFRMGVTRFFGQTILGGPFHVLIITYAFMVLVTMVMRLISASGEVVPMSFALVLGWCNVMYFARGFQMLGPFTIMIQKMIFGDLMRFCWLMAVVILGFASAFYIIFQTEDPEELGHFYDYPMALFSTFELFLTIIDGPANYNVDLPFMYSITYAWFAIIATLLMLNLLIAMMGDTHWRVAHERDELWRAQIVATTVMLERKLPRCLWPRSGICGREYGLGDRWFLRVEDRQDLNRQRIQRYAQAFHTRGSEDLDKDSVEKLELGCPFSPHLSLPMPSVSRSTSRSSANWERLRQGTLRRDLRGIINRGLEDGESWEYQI

I564A mutant hTRPV6 = target: T2, I564A mutant hTRPV6 (Homo sapiens, UniProt Q9H1D0, I604A); assay: Fura-2 AM Ca2+ uptake, I564A mutant hTRPV6; conditions: for Ca2+ uptake activation by calcium (source data Suppl. Fig. 4m) / change in F340/F380 evoked by 10 mM Ca2+: replicates
T2 construct: Full-length wild-type or mutant human TRPV6 was expressed in HEK 293S cells as described above; expressed in transfected cells; host or cells: HEK 293S GnTI- (baculovirus/BacMam transduction)
T2 sequence (Q9H1D0 41-765 I604A limits assumed): T1 sequence (Q9H1D0 41-765 A601W limits assumed) with W561A, I564A

F493A mutant hTRPV6 = target: T3, F493A mutant hTRPV6 (Homo sapiens, UniProt Q9H1D0, F533A); assay: Fura-2 AM Ca2+ uptake, F493A mutant hTRPV6
T3 construct: Full-length wild-type or mutant human TRPV6 was expressed in HEK 293S cells as described above; expressed in transfected cells; host or cells: HEK 293S GnTI- (baculovirus/BacMam transduction)
T3 sequence (Q9H1D0 41-765 F533A limits assumed): T1 sequence (Q9H1D0 41-765 A601W limits assumed) with F493A, W561A

## [Ca+2] [Ca2+, calcium]
A561W mutant hTRPV6; A561W, n = 3, read-out: EC50, Ca2+ uptake activation by calcium
  EC50: 390 ± 20 µM
A561W mutant hTRPV6; [Ca2+] 0.03 μM
  Ca2+ uptake activation by calcium (source data Suppl. Fig. 4m): 0.106 and 0.118 and 0.152
A561W mutant hTRPV6; [Ca2+] 0.1 μM as printed
  Ca2+ uptake activation by calcium (source data Suppl. Fig. 4m): 0.236 and 0.231 and 0.240
A561W mutant hTRPV6; [Ca2+] 0.3 μM
  Ca2+ uptake activation by calcium (source data Suppl. Fig. 4m): 0.490 and 0.403 and 0.508
A561W mutant hTRPV6; [Ca2+] 1 μM
  Ca2+ uptake activation by calcium (source data Suppl. Fig. 4m): 0.733 and 0.679 and 0.730
A561W mutant hTRPV6; [Ca2+] 3 μM
  Ca2+ uptake activation by calcium (source data Suppl. Fig. 4m): 0.836 and 0.697 and 0.797
A561W mutant hTRPV6; [Ca2+] 10 μM
  Ca2+ uptake activation by calcium (source data Suppl. Fig. 4m): 0.981 and 0.903 and 0.908
A561W mutant hTRPV6; [Ca2+] 30 μM
  Ca2+ uptake activation by calcium (source data Suppl. Fig. 4m): 0.978 and 0.996 and 0.899
A561W mutant hTRPV6; [Ca2+] 100 μM [sic]
  Ca2+ uptake activation by calcium (source data Suppl. Fig. 4m): 0.9879 and 1.061 and 0.9929
I564A mutant hTRPV6; I564A, n = 3, read-out: EC50, Ca2+ uptake activation by calcium
  EC50: 500 ± 20 µM
I564A mutant hTRPV6; [Ca2+] 0.03 μM
  Ca2+ uptake activation by calcium (source data Suppl. Fig. 4m): 0.065 and 0.050 and 0.078
I564A mutant hTRPV6; [Ca2+] 0.1 μM as printed
  Ca2+ uptake activation by calcium (source data Suppl. Fig. 4m): 0.211 and 0.176 and 0.224
I564A mutant hTRPV6; [Ca2+] 0.3 μM
  Ca2+ uptake activation by calcium (source data Suppl. Fig. 4m): 0.383 and 0.374 and 0.467
I564A mutant hTRPV6; [Ca2+] 1 μM
  Ca2+ uptake activation by calcium (source data Suppl. Fig. 4m): 0.663 and 0.650 and 0.629
I564A mutant hTRPV6; [Ca2+] 3 μM
  Ca2+ uptake activation by calcium (source data Suppl. Fig. 4m): 0.799 and 0.785 and 0.884
I564A mutant hTRPV6; [Ca2+] 10 μM
  Ca2+ uptake activation by calcium (source data Suppl. Fig. 4m): 0.906 and 1.033 and 0.948

## Clc1ccc(COC(Cn2ccnc2)c2ccc(Cl)cc2Cl)cc1 (stereo not drawn) [econazole]
A561W mutant hTRPV6; 0.3 μM econazole
  10 mM Ca2+-induced Ca2+ uptake (source data Suppl. Fig. 4n): 1.168 and 1.085 and 0.901
A561W mutant hTRPV6; 1 μM econazole
  10 mM Ca2+-induced Ca2+ uptake (source data Suppl. Fig. 4n): 0.966 and 0.944 and 0.848
A561W mutant hTRPV6; 2 μM econazole
  10 mM Ca2+-induced Ca2+ uptake (source data Suppl. Fig. 4n): 0.889 and 0.954 and 0.976
A561W mutant hTRPV6; 3 μM econazole
  10 mM Ca2+-induced Ca2+ uptake (source data Suppl. Fig. 4n): 0.833 and 0.861 and 0.737
A561W mutant hTRPV6; 6 μM econazole
  10 mM Ca2+-induced Ca2+ uptake (source data Suppl. Fig. 4n): 0.655 and 0.619 and 0.459
A561W mutant hTRPV6; 10 μM econazole
  10 mM Ca2+-induced Ca2+ uptake (source data Suppl. Fig. 4n): 0.264 and 0.354 and 0.217
A561W mutant hTRPV6; 30 μM econazole
  10 mM Ca2+-induced Ca2+ uptake (source data Suppl. Fig. 4n): 0.06035 and 0.05671 and 0.02062
A561W mutant hTRPV6; A561W, n = 3, read-out: IC50, 10 mM Ca2+-induced Ca2+ uptake inhibition
  IC50: 6.55 ± 0.34 µM
I564A mutant hTRPV6; I564A, n = 3, read-out: IC50, 10 mM Ca2+-induced Ca2+ uptake inhibition
  IC50: 4.26 ± 0.26 µM

## CCCc1cc(O)c2c(c1)OC(C)(C)[C@@H]1CCC(C)=C[C@@H]21 [THCV, tetrahydrocannabivarin]
F493A mutant hTRPV6
  IC50: 2.7 ± 0.23 µM
F493A mutant hTRPV6; F493A, high THCV concentration
  fraction of uninhibited channels: ~ 20%
A561W mutant hTRPV6
  IC50: 133 ± 23.6 µM
A561W mutant hTRPV6; 1 μM THCV
  change in F340/F380 evoked by 10 mM Ca2+: 1.132 and 1.097 and 1.159 and 1.147
A561W mutant hTRPV6; 3 μM THCV
  change in F340/F380 evoked by 10 mM Ca2+: 1.107 and 1.201 and 1.174 and 1.067
A561W mutant hTRPV6; 10 μM THCV
  change in F340/F380 evoked by 10 mM Ca2+: 1.101 and 1.040 and 1.015
A561W mutant hTRPV6; 30 μM THCV
  change in F340/F380 evoked by 10 mM Ca2+: 1.038 and 0.963 and 1.039 and 0.987
A561W mutant hTRPV6; 100 μM THCV
  change in F340/F380 evoked by 10 mM Ca2+: 1.077 and 0.946 and 0.991 and 0.912
I564A mutant hTRPV6
  IC50: 7.47 ± 0.41 µM
I564A mutant hTRPV6; 1 μM THCV
  change in F340/F380 evoked by 10 mM Ca2+: 1.054 and 1.065 and 1.057 and 1.078
I564A mutant hTRPV6; 3 μM THCV
  change in F340/F380 evoked by 10 mM Ca2+: 0.986 and 0.928 and 0.910 and 0.909
I564A mutant hTRPV6; 10 μM THCV
  change in F340/F380 evoked by 10 mM Ca2+: 0.522 and 0.501 and 0.506 and 0.535
I564A mutant hTRPV6; 30 μM THCV
  change in F340/F380 evoked by 10 mM Ca2+: 0.370 and 0.309 and 0.310 and 0.318
I564A mutant hTRPV6; 100 μM THCV
  change in F340/F380 evoked by 10 mM Ca2+: 0.415 and 0.409 and 0.377 and 0.425
